In article PMC12274840 (The Journal of Biological Chemistry, 2025):
Values joined by “and” are separate entries in the source; they are usually repeats but may differ in a detail not shown here. Equal values may be shown once. Read-outs that look alike come from different tables or passages of the source.

Key:
BlaC WT [1] = target: T1, BlaC WT (Mycobacterium tuberculosis, UniProt P9WKD3); assay type: biochemical
T1 construct: correspond to residue numbers 41-307 of BlaC (Uniprot entry P9WKD3-1); His tag with TEV cleavage site (N); made in house; host or cells: E. coli BL21 (DE3) pLysS
T1 sequence (P9WKD3 41-307): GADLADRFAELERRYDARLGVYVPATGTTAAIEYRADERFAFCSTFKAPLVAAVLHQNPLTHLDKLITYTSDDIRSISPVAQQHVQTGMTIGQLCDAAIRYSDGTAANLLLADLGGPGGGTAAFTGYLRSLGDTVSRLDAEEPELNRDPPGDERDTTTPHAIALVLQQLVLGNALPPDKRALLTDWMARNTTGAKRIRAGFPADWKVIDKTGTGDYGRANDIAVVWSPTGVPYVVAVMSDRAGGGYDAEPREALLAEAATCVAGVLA

[2] = test system: E. coli KA797 cells carrying pUK21 with NmcA (pelB/Sec); assay: microbe, parasite or virus in culture; assay type: cell-based; conditions: in combination with 25 μg/ml carbenicillin
[3] = test system: E. coli KA797 cells carrying pUK21 with TEM-1 Y105G; assay type: cell-based, Escherichia coli; conditions: in combination with 100 μg/ml carbenicillin
[4] = test system: E. coli KA797 cells carrying pUK21 with CTX-M-14 Y105G; assay type: cell-based, Escherichia coli; conditions: in combination with 100 μg/ml carbenicillin
[5] = test system: E. coli KA797 cells carrying pUK21 with TEM-1 WT (Sec); assay: microbe, parasite or virus in culture; assay type: cell-based; conditions: in combination with 100 μg/ml carbenicillin
TEM-1 WT [6] = target: T2, TEM-1 WT (Escherichia coli, UniProt P62593); assay type: biochemical; parameters: 24 to 286 of TEM-1 (P62593); His tag with TEV cleavage site (N); made in house; host or cells: E. coli BL21 (DE3) pLysS
[7] = test system: E. coli KA797 cells carrying BlaC position 105 library; assay type: cell-based, Escherichia coli; conditions: for Fi AVG (average fitness): average of replicates
[8] = test system: E. coli KA797 cells carrying pUK21 with BlaC I105G; assay type: cell-based, Escherichia coli; conditions: in combination with 100 μg/ml carbenicillin
[9] = test system: E. coli KA797 cells carrying pUK21 with BlaC WT (Tat); assay: microbe, parasite or virus in culture; assay type: cell-based; conditions: in combination with 100 μg/ml carbenicillin
[10] = test system: E. coli KA797 cells carrying pUK21 with KPC-2 (Tat); assay: microbe, parasite or virus in culture; assay type: cell-based; conditions: in combination with 100 μg/ml carbenicillin
[11] = test system: E. coli KA797 cells carrying pUK21 with BlaC I105R; assay type: cell-based, Escherichia coli; conditions: in combination with 100 μg/ml carbenicillin
[12] = test system: E. coli KA797 cells carrying pUK21 with TEM-1 Y105R; assay type: cell-based, Escherichia coli; conditions: in combination with 100 μg/ml carbenicillin
[13] = test system: E. coli KA797 cells carrying pUK21 with CTX-M-14 Y105R; assay type: cell-based, Escherichia coli; conditions: in combination with 100 μg/ml carbenicillin
TEM-1 Y105G [14] = target: T3, TEM-1 Y105G (Escherichia coli, UniProt P62593, Y103G); assay: In vitro inhibition of nitrocefin hydrolysis and simulation of inhibition curves, TEM-1 Y105G; assay type: biochemical
[15] = test system: E. coli KA797 cells carrying pUK21 with CTX-M-14 WT (Tat); assay: microbe, parasite or virus in culture; assay type: cell-based; conditions: in combination with 100 μg/ml carbenicillin
[16] = test system: E. coli KA797 cells carrying CTX-M-14 position 105 library; assay type: cell-based
BlaC WT [17] = target: T1, BlaC WT; conditions: pH 6.4, cited from earlier work
TEM-1 WT [18] = target: T2, TEM-1 WT; conditions: phosphate buffer pH 6.4, 25 °C
CTX-M-14 WT = target: T4, CTX-M-14 WT (Escherichia coli, UniProt Q9L5C7); assay: biochemical
T4 construct: 29 to 291 of CTX-M-14 (Q9L5C7); His tag with TEV cleavage site (N); made in house; host or cells: E. coli BL21 (DE3) pLysS

CTX-M-14 Y105G [19] = target: T5, CTX-M-14 Y105G (Escherichia coli, UniProt Q9L5C7, Y108G); assay: biochemical
T5 construct: 29 to 291 of CTX-M-14 (Q9L5C7); His tag with TEV cleavage site (N); made in house; host or cells: E. coli BL21 (DE3) pLysS

CTX-M-14 Y105G [20] = target: T5, CTX-M-14 Y105G; assay type: biochemical
TEM-1 Y105G [21] = target: T3, TEM-1 Y105G; assay: Steady-state kinetics of substrate hydrolysis, TEM-1 Y105G; assay type: biochemical; conditions: phosphate buffer pH 6.4, 25 °C
[22] = clavulanic acid, simulation Eq 2/8, TEM-1 WT
[23] = clavulanic acid, simulation Eq 2/8
[24] = nitrocefin parameter (Eq 7) in simulation of avibactam inhibition curves, CTX-M-14 Y105G
[25] = nitrocefin parameter (Eq 7) in simulation of avibactam inhibition curves
[26] = nitrocefin parameter (Eq 7) in simulation of clavulanic acid inhibition curves

SMILES: O=C(O)[C@H]1/C(=C/CO)O[C@@H]2CC(=O)N21 [clavulanic acid]
- k1 (BlaC WT [1]): 1e+06 M⁻¹ s⁻¹
- k2 (BlaC WT [1]): 4.5 and 4.5 10^−2 s^−1
- k3 (BlaC WT [1]): 1.8
- MIC of inhibitor [2]: 2 µg/mL
- MIC of inhibitor [3]: 32 µg/mL
- MIC of inhibitor [4]: 1 µg/mL
- MIC of inhibitor [5]: 2 µg/mL
- k2 (TEM-1 WT [6]; [22]): 8 10^−2 s^−1
- k3 (TEM-1 WT [6]; [22]): 1.8 10^−3 s^−1
- k1 (TEM-1 WT [6]; clavulanic acid, simulation Eq 8, TEM-1 WT): 900000 M⁻¹ s⁻¹
- Significance of average fitness ([7]; AA 105 Ala (BlaC I105A)): +
- Fi AVG (average fitness) ([7]; AA 105 Ala (BlaC I105A), relative to WT Ile): 0.441
- Significance of average fitness ([7]; AA 105 Arg (BlaC I105R)): +
- Fi AVG (average fitness) ([7]; AA 105 Arg (BlaC I105R), relative to WT Ile): 0.649
- Fi AVG (average fitness) ([7]; AA 105 Asn (BlaC I105N), relative to WT Ile): -0.00565
- Fi AVG (average fitness) ([7]; AA 105 Asp (BlaC I105D), relative to WT Ile): -0.195
- Fi AVG (average fitness) ([7]; AA 105 Cys (BlaC I105C), relative to WT Ile): 0.048
- Fi AVG (average fitness) ([7]; AA 105 Gln (BlaC I105Q), relative to WT Ile): -0.027
- Fi AVG (average fitness) ([7]; AA 105 Glu (BlaC I105E), relative to WT Ile): -0.066
- Significance of average fitness ([7]; AA 105 Gly (BlaC I105G)): +
- Fi AVG (average fitness) ([7]; AA 105 Gly (BlaC I105G), relative to WT Ile): 0.325
- Fi AVG (average fitness) ([7]; AA 105 His (BlaC I105H), relative to WT Ile): 0.091
- Fi AVG (average fitness) ([7]; AA 105 Ile (BlaC WT, reference)): 0.000
- Fi AVG (average fitness) ([7]; AA 105 Leu (BlaC I105L), relative to WT Ile): 0.152
- Fi AVG (average fitness) ([7]; AA 105 Lys (BlaC I105K), relative to WT Ile): 0.212
- Fi AVG (average fitness) ([7]; AA 105 Met (BlaC I105M), relative to WT Ile): 0.159
- Significance of average fitness ([7]; AA 105 Phe (BlaC I105F)): +
- Fi AVG (average fitness) ([7]; AA 105 Phe (BlaC I105F), relative to WT Ile): 0.271
- Fi AVG (average fitness) ([7]; AA 105 Pro (BlaC I105P), relative to WT Ile): 0.200
- Significance of average fitness ([7]; AA 105 Ser (BlaC I105S)): +
- Fi AVG (average fitness) ([7]; AA 105 Ser (BlaC I105S), relative to WT Ile): 0.440
- Significance of average fitness ([7]; AA 105 Thr (BlaC I105T)): +
- Fi AVG (average fitness) ([7]; AA 105 Thr (BlaC I105T), relative to WT Ile): 0.421
- Fi AVG (average fitness) ([7]; AA 105 Trp (BlaC I105W), relative to WT Ile): 0.208
- Significance of average fitness ([7]; AA 105 Tyr (BlaC I105Y)): +
- Fi AVG (average fitness) ([7]; AA 105 Tyr (BlaC I105Y), relative to WT Ile): 0.298
- Fi AVG (average fitness) ([7]; AA 105 Val (BlaC I105V), relative to WT Ile): 0.071
- WT abs Fi 1 ([7]; absolute fitness of BlaC WT (Ile 105), replicate 1): -0.077
- WT abs Fi 2 ([7]; absolute fitness of BlaC WT (Ile 105), replicate 2): 0.311
- MIC of inhibitor [8]: 1 µg/mL
- MIC of inhibitor [9]: 0.5 µg/mL
- MIC of inhibitor [10]: 1 µg/mL
- MIC of inhibitor [11]: 4 µg/mL
- MIC of inhibitor [12]: 2 µg/mL
- MIC of inhibitor [13]: 1 µg/mL
- k2 (TEM-1 Y105G [14]; [23]): 9.6 10^−2 s^−1
- k3 (TEM-1 Y105G [14]; [23]): 3.1 10^−3 s^−1
- MIC of inhibitor [15]: 1 µg/mL
- Significance of average fitness ([16]; CTX-M-14 AA 105 Arg): -
- Significance of average fitness ([16]; CTX-M-14 AA 105 Gly): +
- Significance of average fitness ([16]; CTX-M-14 AA 105 Trp): +
- WT abs Fi 1 (absolute fitness of wild type, Replicate 1) ([16]; CTX-M-14 WT (Tyr 105)): -0.544
- WT abs Fi 2 (absolute fitness of wild type, Replicate 2) ([16]; CTX-M-14 WT (Tyr 105)): -0.635

SMILES: O=C(Cc1cccs1)N[C@@H]1C(=O)N2C(C(=O)O)=C(/C=C/c3ccc([N+](=O)[O-])cc3[N+](=O)[O-])CS[C@H]12 [nitrocefin]
- ka (BlaC WT [1]): 1.05e+06 M⁻¹ s⁻¹
- kc (BlaC WT [1]): 82.5 s⁻¹ and 56 s⁻¹
- kcat (BlaC WT [17]): 86 ± 2 s⁻¹
- Km (BlaC WT [17]; read-out: KM^app): 131 ± 2 µM
- ka (TEM-1 WT [6]): 4.5e+07 M⁻¹ s⁻¹
- kc (TEM-1 WT [6]): 830 s⁻¹ and 1040 s⁻¹
- kcat (TEM-1 WT [18]): 933 ± 33 s⁻¹
- Kd (CTX-M-14 WT): 50 µM
- kc (CTX-M-14 WT): 545 s⁻¹
- Kd (CTX-M-14 Y105G [19]): 760 µM
- ka (CTX-M-14 Y105G [19]; [24]): 5e+07 M⁻¹ s⁻¹
- kc (CTX-M-14 Y105G [19]; [24]): 460 s⁻¹
- ka (TEM-1 Y105G [14]; [25]): 1e+07 M⁻¹ s⁻¹
- kc (TEM-1 Y105G [14]; [25]): 95 s⁻¹
- ka (TEM-1 Y105G [14]; [26]): 1e+07 M⁻¹ s⁻¹
- kc (TEM-1 Y105G [14]; [26]): 154 s⁻¹
- kcat (CTX-M-14 Y105G [20]; phosphate buffer pH 6.4, 25 °C): 963 ± 117 s⁻¹
- Km (CTX-M-14 Y105G [20]; read-out: KM^app, phosphate buffer pH 6.4, 25 °C): 700 ± 172 µM
- kcat (TEM-1 Y105G [21]): 453 ± 80 s⁻¹
